# According to ChEMBL document CHEMBL6074681, “High potency 3-carboxy-2-methylbenzofuran pendrin inhibitors as novel diuretics” (Eur J Med Chem, 2025):
# pIC50: −log10 of the molar value. Calls of active or inactive are those of the source. No cut-off for these calls is given here.
# Assays:
# [1] = target: T1, Pendrin (Homo sapiens, UniProt O43511); test: Inhibition of Pendrin (unknown origin)
# T1 sequence (O43511 whole entry): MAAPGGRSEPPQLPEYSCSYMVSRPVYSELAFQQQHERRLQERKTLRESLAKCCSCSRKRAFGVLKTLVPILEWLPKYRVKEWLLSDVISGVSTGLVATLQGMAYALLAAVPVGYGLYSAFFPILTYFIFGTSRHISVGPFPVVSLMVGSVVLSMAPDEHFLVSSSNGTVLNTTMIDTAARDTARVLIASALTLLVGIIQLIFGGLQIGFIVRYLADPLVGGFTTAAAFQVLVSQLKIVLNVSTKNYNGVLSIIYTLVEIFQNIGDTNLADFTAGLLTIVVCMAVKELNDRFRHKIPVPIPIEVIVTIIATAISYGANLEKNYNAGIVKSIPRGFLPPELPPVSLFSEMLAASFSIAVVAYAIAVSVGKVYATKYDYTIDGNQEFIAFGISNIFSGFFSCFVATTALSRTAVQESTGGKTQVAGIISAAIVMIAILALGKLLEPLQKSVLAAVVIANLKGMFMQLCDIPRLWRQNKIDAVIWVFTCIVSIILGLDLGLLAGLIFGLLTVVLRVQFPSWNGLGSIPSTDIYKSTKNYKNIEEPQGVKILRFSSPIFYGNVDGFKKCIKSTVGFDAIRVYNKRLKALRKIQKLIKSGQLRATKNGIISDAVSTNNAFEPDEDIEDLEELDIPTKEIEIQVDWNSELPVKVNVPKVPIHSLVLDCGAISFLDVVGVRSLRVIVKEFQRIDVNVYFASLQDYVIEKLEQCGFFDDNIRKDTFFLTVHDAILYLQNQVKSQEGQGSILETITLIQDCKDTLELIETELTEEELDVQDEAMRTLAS
# [2] = target: T1, Pendrin; test: Inhibition of Pendrin (unknown origin) transfected in rat FRT cells assessed as reduction in Cl-/I- ions exchange by YFP fluorescence quenching assay; assay type: cell-based
# [3] = target: T2, Solute carrier family 26 member 6 (Homo sapiens) (UniProt Q9BXS9); test: Inhibition of SLC26A6 (unknown origin) transfected in rat FRT cells at 25 uM by YFP fluorescence quenching assay; assay type: cell-based
# T2 sequence (whole entry): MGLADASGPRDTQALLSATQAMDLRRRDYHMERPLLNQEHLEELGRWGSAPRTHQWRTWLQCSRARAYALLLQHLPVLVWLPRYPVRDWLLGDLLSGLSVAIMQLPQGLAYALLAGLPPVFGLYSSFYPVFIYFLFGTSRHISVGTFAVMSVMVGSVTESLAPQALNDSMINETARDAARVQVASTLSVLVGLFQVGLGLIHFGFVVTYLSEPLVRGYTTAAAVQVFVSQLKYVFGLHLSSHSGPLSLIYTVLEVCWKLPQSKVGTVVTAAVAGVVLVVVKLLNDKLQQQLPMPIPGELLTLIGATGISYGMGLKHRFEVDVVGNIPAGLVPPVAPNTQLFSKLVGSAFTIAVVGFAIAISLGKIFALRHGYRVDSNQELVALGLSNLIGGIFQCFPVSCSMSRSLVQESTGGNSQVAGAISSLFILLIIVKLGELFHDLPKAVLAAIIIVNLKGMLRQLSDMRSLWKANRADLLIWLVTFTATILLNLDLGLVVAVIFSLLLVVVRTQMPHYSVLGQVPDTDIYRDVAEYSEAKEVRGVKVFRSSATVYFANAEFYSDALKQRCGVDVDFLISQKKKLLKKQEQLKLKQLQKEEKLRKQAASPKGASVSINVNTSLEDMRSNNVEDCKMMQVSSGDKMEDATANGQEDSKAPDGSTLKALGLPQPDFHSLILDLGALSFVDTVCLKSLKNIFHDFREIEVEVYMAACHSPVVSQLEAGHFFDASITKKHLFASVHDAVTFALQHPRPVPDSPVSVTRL
# [4] = target: Cystic fibrosis transmembrane conductance regulator (Homo sapiens) (UniProt P13569); test: Inhibition of CFTR (unknown origin) transfected in rat FRT cells at 25 uM by YFP fluorescence quenching assay; assay type: cell-based
# Sequence of Cystic fibrosis transmembrane conductance regulator (Homo sapiens) (P13569 whole entry, looked up): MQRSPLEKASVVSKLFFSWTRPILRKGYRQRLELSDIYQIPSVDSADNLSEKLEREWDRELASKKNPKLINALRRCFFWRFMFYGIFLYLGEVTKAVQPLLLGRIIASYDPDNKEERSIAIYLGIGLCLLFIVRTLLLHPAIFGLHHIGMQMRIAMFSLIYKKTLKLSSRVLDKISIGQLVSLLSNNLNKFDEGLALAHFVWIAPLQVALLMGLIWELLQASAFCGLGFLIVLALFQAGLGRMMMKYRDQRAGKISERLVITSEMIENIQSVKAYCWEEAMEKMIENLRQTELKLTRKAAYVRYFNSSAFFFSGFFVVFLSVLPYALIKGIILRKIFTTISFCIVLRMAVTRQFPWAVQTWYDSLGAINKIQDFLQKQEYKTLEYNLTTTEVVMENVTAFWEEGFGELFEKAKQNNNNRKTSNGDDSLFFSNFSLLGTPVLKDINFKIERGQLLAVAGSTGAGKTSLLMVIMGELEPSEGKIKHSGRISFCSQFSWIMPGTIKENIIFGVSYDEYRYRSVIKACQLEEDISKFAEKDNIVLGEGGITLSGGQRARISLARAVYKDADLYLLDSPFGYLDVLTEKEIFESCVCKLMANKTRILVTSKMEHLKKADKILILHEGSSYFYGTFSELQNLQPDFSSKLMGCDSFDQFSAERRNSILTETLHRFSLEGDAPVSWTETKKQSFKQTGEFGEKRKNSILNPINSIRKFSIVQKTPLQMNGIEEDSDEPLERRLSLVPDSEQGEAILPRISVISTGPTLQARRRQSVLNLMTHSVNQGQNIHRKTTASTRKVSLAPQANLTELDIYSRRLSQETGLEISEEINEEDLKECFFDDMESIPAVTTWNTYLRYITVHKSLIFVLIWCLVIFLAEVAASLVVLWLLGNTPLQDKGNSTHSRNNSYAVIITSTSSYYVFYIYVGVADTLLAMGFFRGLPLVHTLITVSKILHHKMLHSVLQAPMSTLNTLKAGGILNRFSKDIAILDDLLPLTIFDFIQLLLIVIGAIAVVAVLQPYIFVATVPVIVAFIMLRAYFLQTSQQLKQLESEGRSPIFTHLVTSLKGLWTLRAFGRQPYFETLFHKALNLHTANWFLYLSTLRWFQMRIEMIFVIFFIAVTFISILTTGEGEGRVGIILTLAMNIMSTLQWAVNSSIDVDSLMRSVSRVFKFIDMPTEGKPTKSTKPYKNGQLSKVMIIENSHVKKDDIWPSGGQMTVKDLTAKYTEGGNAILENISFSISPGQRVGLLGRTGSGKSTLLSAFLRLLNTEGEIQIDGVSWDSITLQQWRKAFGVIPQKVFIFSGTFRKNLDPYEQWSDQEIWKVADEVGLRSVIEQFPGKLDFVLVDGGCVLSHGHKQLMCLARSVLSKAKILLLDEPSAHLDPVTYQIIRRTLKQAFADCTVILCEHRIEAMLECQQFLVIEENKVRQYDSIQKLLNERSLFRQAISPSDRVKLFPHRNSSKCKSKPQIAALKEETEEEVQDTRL
# [5] = tested on: Mus musculus; test: Effect on osmolality in mouse model at 10 mg/kg, ip measured for 3 hrs in presence of Furosemide; assay type: functional, organism-based
# [6] = target: T3, Chloride anion exchanger (Homo sapiens) (UniProt P40879); test: Inhibition of SLC26A3 (unknown origin) transfected in rat FRT cells at 25 uM by YFP fluorescence quenching assay; assay type: cell-based
# T3 sequence (whole entry): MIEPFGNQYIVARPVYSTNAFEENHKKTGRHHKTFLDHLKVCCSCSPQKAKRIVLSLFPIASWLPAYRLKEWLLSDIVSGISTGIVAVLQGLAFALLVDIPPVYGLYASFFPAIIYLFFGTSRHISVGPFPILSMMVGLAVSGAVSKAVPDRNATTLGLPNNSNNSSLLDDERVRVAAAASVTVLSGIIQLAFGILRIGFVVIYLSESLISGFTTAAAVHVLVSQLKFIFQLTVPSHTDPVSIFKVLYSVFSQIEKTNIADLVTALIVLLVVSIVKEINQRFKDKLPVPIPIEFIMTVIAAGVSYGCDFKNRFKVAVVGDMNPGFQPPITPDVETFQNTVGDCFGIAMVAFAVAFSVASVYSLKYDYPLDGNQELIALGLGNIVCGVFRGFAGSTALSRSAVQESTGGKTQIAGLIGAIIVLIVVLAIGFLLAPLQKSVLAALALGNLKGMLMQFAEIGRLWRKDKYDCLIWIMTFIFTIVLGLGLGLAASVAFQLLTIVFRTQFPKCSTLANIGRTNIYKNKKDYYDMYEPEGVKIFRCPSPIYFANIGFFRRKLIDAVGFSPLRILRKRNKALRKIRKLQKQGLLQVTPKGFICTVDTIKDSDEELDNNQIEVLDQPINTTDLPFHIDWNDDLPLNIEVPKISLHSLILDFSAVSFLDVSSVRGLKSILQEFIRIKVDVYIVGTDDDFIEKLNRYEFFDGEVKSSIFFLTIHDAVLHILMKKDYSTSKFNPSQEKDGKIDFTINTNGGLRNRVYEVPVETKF
# [7] = tested on: Mus musculus; test: Effect on urine volume in mouse model at 10 mg/kg, ip measured for 3 hrs; assay type: functional, organism-based
# [8] = target: T4, Pendrin (Homo sapiens) (UniProt O43511); test: Inhibition of Pendrin (unknown origin) transfected in rat FRT cells at 25 uM by YFP fluorescence quenching assay relative to control; assay type: cell-based
# T4 sequence (whole entry): T1 sequence (O43511 whole entry)
# [9] = Cytotoxicity against rat FRT cells assessed as cell viability at 10 uM measured after 24 hrs by Alamar blue dye based assay; assay type: toxicity
# [10] = Selectivity index, ratio of IC50 for SLC26A6 (unknown origin) transfected in rat FRT cells to IC50 for Pendrin (unknown origin) transfected in rat FRT cells; assay type: cell-based
# [11] = tested on: Mus musculus; test: Effect on osmolality in mouse model at 10 mg/kg, ip measured for 3 hrs; assay type: functional, organism-based
# [12] = tested on: Mus musculus; test: Potentiation of Furosemide-induced diuretic effect in mouse model at 10 mg/kg, ip measured for 3 hrs relative to control; assay type: functional
# [13] = target: T5, Solute carrier family 26 member 6 (Homo sapiens, UniProt Q9BXS9); test: Inhibition of SLC26A6 (unknown origin) transfected in rat FRT cells by YFP fluorescence quenching assay; assay type: cell-based
# T5 sequence (Q9BXS9 whole entry): T2 sequence (whole entry)
# [14] = target: T4, Pendrin (Homo sapiens); test: Potency index, ratio of PDSinh-A01 IC50 to test compound IC50 for Pendrin (unknown origin) transfected in rat FRT cells assessed as reduction in Cl-/I- ions exchange by YFP fluorescence quenching assay; assay type: cell-based
compound,measurement,setting,value
Cn1nc(COc2cccc(F)c2)c2c1CCN(C(=O)Nc1ccc(Cl)cc1)C2,pIC50,[1],4.90
Cc1ccccc1COc1ccc2oc(C)c(C(=O)O)c2c1,pIC50,[2],5.84
Cc1oc2ccc(OCc3cc(F)ccc3Cl)cc2c1C(=O)O,inhibition,[3],Active
same,inhibition,[4],Active; Exhibited Minimal Effect
same,Activity,[5],No effect
same,inhibition,[6],inactive
same,Activity,[7],No effect
same,inhibition,[8],100%
same,Activity,[9],Non-toxic
same,Ratio IC50,[10],20
same,pIC50,[2],6.32
same,Activity,[11],No effect
same,Activity,[12],45%
same,pIC50,[13],5.00
Cc1oc2ccc(OCc3cccc(Br)c3)cc2c1C(=O)O,pIC50,[2],5.09
Cc1oc2ccc(OCc3ccccc3Cl)cc2c1C(=O)O,inhibition,[3],Active; Exhibited Minimal Inhibition
same,inhibition,[4],Active; Exhibited Minimal Effect
same,inhibition,[6],inactive
same,inhibition,[8],100%
same,Activity,[9],Non-toxic
Cc1oc2ccc(OCc3cccc(Cl)c3)cc2c1C(=O)O,pIC50,[2],5.32
Cc1oc2ccc(OCc3ccccc3)cc2c1C(=O)O,pIC50,[2],5.51
Cc1oc2ccc(OCc3ccc(Br)cc3)cc2c1C(=O)O,Ratio IC50,[14],3
same,pIC50,[2],5.39
Cc1oc2ccc(OCc3ccc(Cl)cc3)cc2c1C(=O)O,pIC50,[2],5.30
